Reference: patent publication US9931347B2, “Pharmaceutical compound” (IOmet Pharma Ltd., priority 2013, dated 2018)

Key:
Recombinant human TDO = Recombinant human TDO (Homo sapiens, UniProt P48775); test: hTDO biochemical coupled assay; settings: 330 μM L-tryptophan, coupled with kynurenine formamidase
Procedure, shortened: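 Recombinant human TDO with 330 μM L-tryptophan in 50 mM KPO4 pH 7.0 containing EGTA, EDTA, Triton X100, ascorbate, methylene blue, catalase and kynurenine formamidase (KynB), 17 min at room temperature. Stopped with Ehrlich's reagent, 5 min, then kynurenine fluorescence read (Ex475, Em530).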

[1] = biological target: T1, TDO (A172 human glioblastoma cells) (Homo sapiens, UniProt P48775); test: A172 Kynurenine cell based assay; settings: 500 μM L-tryptophan, 48 hours, kynurenine by Erhlich's reagent
T1 construct: This assay utilised cancer cells which expressed either TDO or IDO; endogenous in cells; host or cells: A172 human glioblastoma cells
Procedure, shortened: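 Kynurenine released into the supernatant was quantified by absorbance at 490 nm after 5 min with Erhlich's reagent. A172 cells were seeded at 30,000/well and exposed to test compound for 48 hours at 37° C. in phenol red-free RPMI containing 500 μM L-tryptophan, 10% FCS and 2 mM L-glutamine.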

[2] = biological target: T2, IDO (SKOV3 human ovarian adenocarcinoma cells, IFN-γ induced) (Homo sapiens, UniProt P14902); test: SKOV3 Kynurenine cell based assay; settings: IDO induced by 500 ng/ml IFN-γ, 500 μM L-tryptophan, 48 hours
T2 construct: IDO expression was induced in the SKOV3 cells by the addition of 500 ng/ml IFN-γ; endogenous in cells; host or cells: SKOV3 human ovarian adenocarcinoma cells, induced with IFN-γ
Procedure, shortened: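 Kynurenine in the supernatant, detected by Ehrlich's reagent, served as read-out after 48 h at 37° C with or without test compound. SKOV3 cells (40,000/well) were grown in phenol red-free RPMI, 10% FCS, 2 mM L-glutamine, 500 μM L-tryptophan, with 500 ng/ml IFN-γ to induce IDO.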

Recombinant human IDO = Recombinant human IDO (Homo sapiens, UniProt P14902); test: hIDO biochemical coupled assay; settings: 45 μM L-tryptophan, coupled with kynurenine formamidase
Procedure, shortened: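 Recombinant human IDO incubated in 50 mM KPO4 (pH 7.0), 0.5 mM EGTA, 0.5 mM EDTA, 0.05% Triton X100, 20 mM ascorbate, 10 μM methylene blue, 500 U/ml catalase and 50 μg/ml kynurenine formamidase. N-formylkynurenine converted to kynurenine, quantified by fluorescence after Ehrlich's reagent.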

T2 sequence (P14902 whole entry): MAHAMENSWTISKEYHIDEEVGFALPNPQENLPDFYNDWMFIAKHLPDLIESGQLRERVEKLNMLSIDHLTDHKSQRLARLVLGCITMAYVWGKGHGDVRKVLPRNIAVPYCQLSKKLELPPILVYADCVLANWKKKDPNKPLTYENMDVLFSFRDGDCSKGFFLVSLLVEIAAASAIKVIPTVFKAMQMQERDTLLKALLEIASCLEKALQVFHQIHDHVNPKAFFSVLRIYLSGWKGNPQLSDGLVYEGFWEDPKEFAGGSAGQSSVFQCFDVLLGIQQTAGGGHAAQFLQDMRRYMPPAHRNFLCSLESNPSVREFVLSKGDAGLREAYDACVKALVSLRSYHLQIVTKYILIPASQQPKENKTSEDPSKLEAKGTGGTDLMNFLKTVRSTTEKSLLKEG
Recombinant human IDO, sequence (P14902 whole entry): as above
T1 sequence (P48775 whole entry): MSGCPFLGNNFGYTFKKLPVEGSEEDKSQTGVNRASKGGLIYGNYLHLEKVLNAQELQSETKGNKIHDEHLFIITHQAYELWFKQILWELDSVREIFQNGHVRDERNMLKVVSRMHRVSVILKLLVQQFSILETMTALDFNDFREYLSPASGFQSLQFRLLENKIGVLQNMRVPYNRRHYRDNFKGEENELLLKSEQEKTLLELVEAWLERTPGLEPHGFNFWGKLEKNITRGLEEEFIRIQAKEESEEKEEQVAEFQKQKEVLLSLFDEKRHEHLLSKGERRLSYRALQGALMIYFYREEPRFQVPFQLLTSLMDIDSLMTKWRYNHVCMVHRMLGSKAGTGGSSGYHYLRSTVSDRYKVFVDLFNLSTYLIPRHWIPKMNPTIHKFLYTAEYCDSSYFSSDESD
Recombinant human TDO, sequence (P48775 whole entry): as above

| SMILES | hTDO biochemical assay pIC50 (Recombinant human TDO) | A172 Kynurenine cell based assay pIC50 [1] | SKOV3 Kynurenine cell based assay pIC50 [2] | hIDO biocehmical assay pIC50 (Recombinant human IDO) |
| --- | --- | --- | --- | --- |
| CC(=O)N1CCC(c2c[nH]c3ccccc23)CC1 [Compound 1] | +− (+− = pIC50 <4.00) | ++ (++ = pIC50 5.00-5.99) | + (+ = pIC50 4.00-4.99) | +− (+− = pIC50 <4.00) |
| CS(=O)(=O)N1CCC(c2c[nH]c3cnccc23)CC1 [Compound 176] | +− (+− = pIC50 <4.00) | + (+ = pIC50 4.00-4.99) | + (+ = pIC50 4.00-4.99) | +− (+− = pIC50 <4.00) |
| O=S(=O)(c1ccccc1Br)N1CCC(c2c[nH]c3ccccc23)CC1 [Compound 21] | +− (+− = pIC50 <4.00) | + (+ = pIC50 4.00-4.99) | + (+ = pIC50 4.00-4.99) | +− (+− = pIC50 <4.00) |
| CCc1cc(Br)ccc1S(=O)(=O)N1CCC(c2c[nH]c3ccc(OC)cc23)CC1 [Compound 29] | +− (+− = pIC50 <4.00) | +− (+− = pIC50 <4.00) | + (+ = pIC50 4.00-4.99) | +− (+− = pIC50 <4.00) |
| CCCS(=O)(=O)N1CCC(c2c[nH]c3ccccc23)CC1 [Compound 69] | + (+ = pIC50 4.00-4.99) | ++ (++ = pIC50 5.00-5.99) | +− (+− = pIC50 <4.00) | +− (+− = pIC50 <4.00) |
| O=C(CO)N1CCC(c2c[nH]c3ccccc23)CC1 [Compound 67] | +− (+− = pIC50 <4.00) | + (+ = pIC50 4.00-4.99) | +− (+− = pIC50 <4.00) | +− (+− = pIC50 <4.00) |
| CC(C)OCC(=O)N1CC=C(c2c[nH]c3cc(F)ccc23)CC1 [Compound 163] | ++ (++ = pIC50 5.00-5.99) | +++ (+++ = pIC50 ≥6.00) | + (+ = pIC50 4.00-4.99) | +− (+− = pIC50 <4.00) |
| Cc1ccc(S(=O)(=O)N2CCC(c3c[nH]c4ccccc34)CC2)cc1 [Compound 9] | +− (+− = pIC50 <4.00) | + (+ = pIC50 4.00-4.99) | + (+ = pIC50 4.00-4.99) | +− (+− = pIC50 <4.00) |
| Cc1ccc(S(=O)(=O)N2CCC(c3c[nH]c4ccccc34)CC2)c(C)c1 [Compound 14] | +− (+− = pIC50 <4.00) | + (+ = pIC50 4.00-4.99) | +− (+− = pIC50 <4.00) | +− (+− = pIC50 <4.00) |
| Cc1ccc2[nH]cc(C3CCN(S(=O)(=O)c4cc(C(F)(F)F)ccc4C(F)(F)F)CC3)c2c1 [Compound 35] | +− (+− = pIC50 <4.00) | +− (+− = pIC50 <4.00) | + (+ = pIC50 4.00-4.99) | +− (+− = pIC50 <4.00) |
| COc1cccc2c(C3=CCN(S(C)(=O)=O)CC3)c[nH]c12 [Compound 93] | + (+ = pIC50 4.00-4.99) | +− (+− = pIC50 <4.00) | +− (+− = pIC50 <4.00) | +− (+− = pIC50 <4.00) |
| CC(=O)N1CCC(c2c[nH]c3ccncc23)CC1 [Compound 174] | +− (+− = pIC50 <4.00) | + (+ = pIC50 4.00-4.99) | + (+ = pIC50 4.00-4.99) | +− (+− = pIC50 <4.00) |
| CCCC(=O)N1CCC(c2c[nH]c3ccccc23)CC1 [Compound 83] | +− (+− = pIC50 <4.00) | + (+ = pIC50 4.00-4.99) | +− (+− = pIC50 <4.00) | +− (+− = pIC50 <4.00) |
| NS(=O)(=O)N1CC=C(c2c[nH]c3cc(F)ccc23)CC1 [Compound 164] | +++ (+++ = pIC50 ≥6.00) | +++ (+++ = pIC50 ≥6.00) | +− (+− = pIC50 <4.00) | +− (+− = pIC50 <4.00) |
| COCCS(=O)(=O)N1CCC(c2c[nH]c3ccccc23)CC1 [Compound 74] | + (+ = pIC50 4.00-4.99) | ++ (++ = pIC50 5.00-5.99) | +− (+− = pIC50 <4.00) | +− (+− = pIC50 <4.00) |
| Cc1ccc2[nH]cc(C3CCN(S(=O)(=O)c4ccccc4OC(F)(F)F)CC3)c2c1 [Compound 36] | +− (+− = pIC50 <4.00) | + (+ = pIC50 4.00-4.99) | ++ (++ = pIC50 5.00-5.99) | +− (+− = pIC50 <4.00) |
| Cc1ccc2[nH]cc(C3CCN(S(=O)(=O)c4cccc(Cl)c4C)CC3)c2c1 [Compound 32] | +− (+− = pIC50 <4.00) | +− (+− = pIC50 <4.00) | + (+ = pIC50 4.00-4.99) | +− (+− = pIC50 <4.00) |
| CC(=O)N1CC=C(c2c[nH]c3c(F)cccc23)CC1 [Compound 94] | + (+ = pIC50 4.00-4.99) | + (+ = pIC50 4.00-4.99) | +− (+− = pIC50 <4.00) | +− (+− = pIC50 <4.00) |
| NS(=O)(=O)N1CC=C(c2c[nH]c3ccccc23)CC1 [Compound 162] | +++ (+++ = pIC50 ≥6.00) | +++ (+++ = pIC50 ≥6.00) | +− (+− = pIC50 <4.00) | +− (+− = pIC50 <4.00) |
| CS(=O)(=O)N1CCC(c2c[nH]c3cccc(F)c23)CC1 [Compound 95] | +− (+− = pIC50 <4.00) | + (+ = pIC50 4.00-4.99) | +− (+− = pIC50 <4.00) | +− (+− = pIC50 <4.00) |
| CS(=O)(=O)N1CC=C(c2c[nH]c3cc(Cl)ccc23)CC1 [Compound 76] | ++ (++ = pIC50 5.00-5.99) | ++ (++ = pIC50 5.00-5.99) | + (+ = pIC50 4.00-4.99) | +− (+− = pIC50 <4.00) |
| CS(=O)(=O)N1CCC(c2c[nH]c3ccncc23)CC1 [Compound 175] | +− (+− = pIC50 <4.00) | + (+ = pIC50 4.00-4.99) | + (+ = pIC50 4.00-4.99) | +− (+− = pIC50 <4.00) |
| CS(=O)(=O)N1CC=C(c2c[nH]c3ccc(Cl)cc23)CC1 [Compound 166] | + (+ = pIC50 4.00-4.99) | ++ (++ = pIC50 5.00-5.99) | + (+ = pIC50 4.00-4.99) | +− (+− = pIC50 <4.00) |
| NC(=O)N1CCC(c2c[nH]c3ccccc23)CC1 [Compound 16] | +− (+− = pIC50 <4.00) | + (+ = pIC50 4.00-4.99) | +− (+− = pIC50 <4.00) | +− (+− = pIC50 <4.00) |
